Legend:
[1] = tested on: Firefly luciferase in RAW264.7 cell line transfected with the pmirGLO plasmid; assay: In vitro silencing (dose-response curve); settings: RAW 264.7 cell line; siRNA-aNPs containing the polyvalent molecule vs DLin-MC3-DMA or ALC-0315 particles (FIG. 11)
Procedure: The in vitro silencing experiments were performed in a RAW264.7 cell line transfected with the pmirGLO plasmid (containing Renilla luciferase and Firefly luciferase expressing gene sequences). The cells were cultured until 80% confluency in a T75 cell culture flask. The cells were detached, counted, and seeded at 10000 cells/well in a 96-well plate. After overnight resting, the cells were transfected with nanoparticles containing anti Firefly luciferase siRNA at a range of concentrations. After 48-hour incubation, the old medium was washed off with 1×PBS. Lysate phosphate buffer (Dual-Luciferase® Reporter Assay System, Promega) was added to lyse the cells. […] Subsequently, 40 μl of ONE-Glo™ reagent (Dual-Luciferase® Reporter Assay System, Promega) was added and luminescence was measured with a Tecan Spark® microplate reader at an integration time of 500 ms, and settle time of 1000 ms. Since the luminescence peak should be in the range of 550-570 nm, a luminescence scan was performed to confirm the wavelength. Next, 40 μl of Stop and Glo reagent (Dual-Luciferase® Reporter Assay System, Promega) was added to each well and the luminescence was measured again in the same way. The relative remaining Firefly luciferase luminescence was calculated. First, the Firefly luminescence was normalized with the Renilla luminescence. […]

RAW 264.7 cell line = assay: MTS cytotoxicity assay; type: cell-based; settings: RAW 264.7 cell line exposed to siRNA-aNPs with increasing amounts of the polyvalent molecule (FIG. 10)
Procedure: MTS assays were carried out on multiple apolipoprotein nanoparticles (aNPs) of the invention. These assays were executed in line with protocols that are known in the art.

[2] = siRNA retention by Quant-iT RiboGreen assay; type: physicochemical; settings: A2 siRNA-aNPs with variations in N/P, tri-caprylin content, cholesterol content and type of phospholipid (FIG. 13); in most cases
Procedure: (§1) The Quant-iT RiboGreen assay (Thermo Fisher) was used to quantify the amount of siRNA loaded inside the formulated particles. The assay was performed using a black 96-well plate. The formulation sample with a theoretical siRNA concentration of 133.3 μg/mL, was diluted 200 times in TE buffer (10 mM Tris-HCl, 1 mM, EDTA, pH 7.5 in DEPC-treated water) and with a TE buffer containing 2% Triton™ X-100, in a black 96-well plate to a total volume of 100 μl. The Triton detergent will disrupt the lipid-based nanoparticles; therefore, all siRNA (retained plus unretained) becomes accessible for the Quant-iT RiboGreen reagent. Controls of siRNA of known concentration (28.6 μg/mL) were diluted 53.3 times in both TE buffer and TE buffer containing 2% Triton in a 96-well plate to a total volume of 100 μl. Next, RiboGreen reagent was diluted 200 times with TE buffer and with TE buffer containing Triton. 100 μl of this dilution was added to each well containing sample or control to bring the total volume in the plate to 200 μl. Subsequently, the samples' fluorescence was measured on a Tecan Spark® microplate reader at an excitation wavelength of 480 nm and emission wavelength of 520 nm.
The recovery of siRNA was determined as:
The siRNA retention=recovery×entrapment.

C57BL/6 mice = assay: In vivo Firefly luciferase expression; settings: 0.5 mg/kg Firefly luciferase mRNA in aNP, bolus injection, 16 hours, two animals (FIG. 16)
Procedure: After 16 hours, the animals were sacrificed and the liver, spleen and femur collected. Organs were processed to yield single cell suspensions. 1/10th of the liver was cut into small pieces, incubated for 15 min, 37° C., 50 RPM with 5 mL liberase solution. Next, the digested liver was put through a 70 μm strainer and collected in a 50 mL falcon tube. After washing with 1×PBS, the cells was resuspended in 15 mL 1×PBS. 1/10th of the spleen was cut into small pieces and put through a 70 μm strainer and collected in a 50 mL falcon tube. After washing with 1×PBS, 1 mL of lysis buffer (BD Pharm Lyse™, cat #555899, diluted 10 times in diH2O) was added and incubated for 4 minute at room temperature. The cells were washed with 1×PBS and resuspended in 15 mL 1×PBS. Both ends of the femur were broken. The bone marrow cells were flushed from the inside of the bone with 10 mL 1×PBS through a 70 μm strainer and collected in a 50 mL falcon tube. The cells were centrifugated and 1 mL lysis buffer (BD Pharm Lyse™, cat #555899, diluted 10 times in diH2O) was added to the pellet and incubated for 1 minute at room temperature. […] All cell suspensions were counted and 500000 cells were seeded in a V-bottom plate. […] 40 μL was transferred to a white 96-well plate and luminescence was measured using the following settings: Settle time: 1000 ms; Integration time: 500 ms; Open filter.

[3] = Dynamic light scattering (DLS) of nanoparticles; type: physicochemical
Procedure: The hydrodynamic diameter of the formulated particles was determined by a number-weighted mean diameter provided by dynamic light scattering (DLS) using a Zetasizer Nano ZS in combination with a Malvern Zetasizer NanoSampler (Malvern Instruments, Worcestshire, UK). The size dispersity was measured as the poly dispersity index (PDI). For the DLS measurements, 100 μl of the formulated nanoparticle was diluted into 700 μl of PBS (137 mM NaCl, 2.7 mM KCl, 10 mM Na2HPO4 and 1.8 mM KH2PO4) and equilibrated at room temperature before the analysis. Each sample was measured 5 times, 10 runs of each 10 seconds, at wavelength 633 nm, without fixing the attenuator and measurement position.

[4] = mRNA recovery, entrapment and retention by Ribogreen assay; type: physicochemical; settings: mRNA-aNPs containing the polyvalent material; for Retention of mRNA: retention = recovery x entrapment
Procedure: as §1
This was done in a similar way as described for determining the siRNA encapsulation efficiency.

[5] = mRNA-aNPs containing the polyvalent material, in vitro experiment formulation
[6] = mRNA-aNPs containing the polyvalent material, in vivo experiment formulation
[7] = siRNA-aNPs containing A2, N/P = 6, High Cholesterol (3.37 mg)
[8] = siRNA-aNPs containing A2, N/P = 6, Low Cholesterol (0.54 mg)
[9] = siRNA-aNPs containing A2, N/P = 6, Low Triglyceride (5 mg)
[10] = siRNA-aNPs containing A2, N/P = 6, No Triglyceride
[11] = siRNA-aNPs containing A2, N/P = 6, phospholipid DMPC
[12] = siRNA-aNPs containing A2, N/P = 6, phospholipid DPPC
[13] = siRNA-aNPs containing A2, N/P = 6, phospholipid DSPC
[14] = siRNA-aNPs containing A2, N/P = 6, phospholipid POPC
[15] = siRNA-aNPs containing A2, composition as Table S3 except N/P = 3
[16] = siRNA-aNPs containing A2, composition as Table S3 except N/P = 9
[17] = siRNA-aNPs containing the polyvalent material (Table S3), SD over individual repeats
[18] = formulation for in vitro experiment (Table S8)
[19] = formulation for in vivo experiment (Table S8)

CCCCCCCCOC(=O)CCN(CCCN(CCCCN(CCCN(CCC(=O)OCCCCCCCC)CCC(=O)OCCCCCCCC)CCCN(CCC(=O)OCCCCCCCC)CCC(=O)OCCCCCCCC)CCCN(CCC(=O)OCCCCCCCC)CCC(=O)OCCCCCCCC)CCC(=O)OCCCCCCCC [Example A2, G1-ACR-nC8-8]
silencing potency compared with reference aNPs or LNPs (dose response curve) [1]: higher potency than the reference aNPs or LNPs
cytotoxicity (MTS assay) (RAW 264.7 cell line): do not exercise cytotoxicity
siRNA retention (Ribogreen assay) [2]: high siRNA retention
Luminescence intensity of single cell suspensions from liver, spleen and bone marrow (tissue targeting) (C57BL/6 mice): target spleen and bone marrow tissue efficiently
DLS Hydrodynamic diameter (number mean) [3, 5]: 53 nm
DLS PDI [3, 5]: 0.27
DLS Hydrodynamic diameter (number mean) [3, 6]: 63 nm
DLS PDI [3, 6]: 0.08
DLS Hydrodynamic diameter [3, 7]: 103 nm
DLS PDI [3, 7]: 0.24
DLS Hydrodynamic diameter [3, 8]: 95 nm
DLS PDI [3, 8]: 0.07
DLS Hydrodynamic diameter [3, 9]: 60 nm
DLS PDI [3, 9]: 0.08
DLS Hydrodynamic diameter [3, 10]: 122 nm
DLS PDI [3, 10]: 0.16
DLS Hydrodynamic diameter [3, 11]: 91 nm
DLS PDI [3, 11]: 0.18
DLS Hydrodynamic diameter [3, 12]: 61 nm
DLS PDI [3, 12]: 0.08
DLS Hydrodynamic diameter [3, 13]: 60 nm
DLS PDI [3, 13]: 0.07
DLS Hydrodynamic diameter [3, 14]: 123 nm
DLS PDI [3, 14]: 0.08
DLS Hydrodynamic diameter [3, 15]: 173 nm
DLS PDI [3, 15]: 0.79
DLS Hydrodynamic diameter [3, 16]: 62 nm
DLS PDI [3, 16]: 0.24
nanoparticle diameter, all composition variations of Table S7 ([3]; siRNA-aNPs containing A2, in all cases): with diameters smaller than 200 nm are formed.
DLS Hydrodynamic diameter (number mean) [3, 17]: 57 ± 6 nm
DLS PDI [3, 17]: 0.16 ± 0.03
Entrapment of mRNA [4, 18]: 87%
Recovery of mRNA [4, 18]: 27%
Retention of mRNA [4, 18]: 23%
Entrapment of mRNA [4, 19]: 88%
Recovery of mRNA [4, 19]: 57%
Retention of mRNA [4, 19]: 50%

Reference: US20250325491A1, “POLYVALENT MOLECULE BASED LIPID NANOPARTICLES FOR NUCLEIC ACID DELIVERY” (Bio-TRIP B.V., priority 2022, published 2025)
